Source: ChEMBL document CHEMBL1201862, “PubChem BioAssay data set” (2004)
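Step 1: Grow cells in 96-well plates. Step 2: Expose to compound for 48 hours at 5 concentrations. Step 3: Interpolate endpoints linearly; if unreached, use highest concentration. Abbreviation: GI50, concentration required for 50% inhibition of growth.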 Active and inactive are the calls of the source. Cut-off read from the data, not from the text of the source: active = GI50 up to about 1.1 µM and inactive = higher.

Experiments:
Experiment in all cases: NCI tumour cell line growth inhibition, 48 h
SW-620 = test system: SW-620
HL-60 = test system: HL-60
LOX IMVI = test system: LOX IMVI
RPMI-8226 = test system: RPMI-8226
OVCAR-4 = test system: OVCAR-4
NCI-H460 = test system: NCI-H460
NCI-H226 = test system: NCI-H226
SNB-19 = test system: SNB-19
PC-3 = test system: PC-3
ACHN = test system: ACHN
SK-OV-3 = test system: SK-OV-3
UO-31 = test system: UO-31
EKVX = test system: EKVX
Malme-3M = test system: Malme-3M
HCT-116 = test system: HCT-116
MDA-MB-231 = test system: MDA-MB-231
SN12C = test system: SN12C
OVCAR-5 = test system: OVCAR-5
A498 = test system: A498
SK-MEL-2 = test system: SK-MEL-2

Measured: GI50

CC(C)=CCNc1nc(Cl)nc2[nH]cnc12
inactive: SW-620 > 100 µM | HL-60 > 100 µM | LOX IMVI > 100 µM | RPMI-8226 > 100 µM | OVCAR-4 54.1 µM | NCI-H460 16.7 µM | NCI-H226 > 100 µM | SNB-19 29 µM | PC-3 > 100 µM | ACHN 54.1 µM | SK-OV-3 16.4 µM | UO-31 37.4 µM | EKVX 15.7 µM | Malme-3M 86.9 µM | HCT-116 24.7 µM | MDA-MB-231 21.5 µM | SN12C 57.7 µM | OVCAR-5 > 100 µM | A498 44 µM

O=C(Nc1ccc(Cl)cc1C(F)(F)F)C(=O)Nn1c(S)nc2ccccc2c1=O
inactive: SW-620 > 100 µM | HL-60 60.5 µM | LOX IMVI > 100 µM | RPMI-8226 > 100 µM | OVCAR-4 60.4 µM | NCI-H460 > 100 µM | SK-MEL-2 > 100 µM | NCI-H226 > 100 µM | PC-3 > 100 µM | ACHN > 100 µM | SK-OV-3 > 100 µM | UO-31 > 100 µM | HCT-116 > 100 µM | MDA-MB-231 > 100 µM | SN12C > 100 µM | OVCAR-5 > 100 µM | A498 > 100 µM

COc1ccc2[nH]c3c(c2c1)CC(=O)N1CCCC(CC3O)C1 (stereo unspecified)
inactive: SW-620 > 100 µM | LOX IMVI > 100 µM | RPMI-8226 > 100 µM | OVCAR-4 > 100 µM | NCI-H460 > 100 µM | SK-MEL-2 > 100 µM | NCI-H226 > 100 µM | SNB-19 > 100 µM | PC-3 > 100 µM | ACHN > 100 µM | SK-OV-3 > 100 µM | UO-31 > 100 µM | Malme-3M > 100 µM | HCT-116 > 100 µM | MDA-MB-231 > 100 µM | SN12C > 100 µM | A498 > 100 µM

CCOC(=O)N(NC(=O)NC(C)C)c1ccccc1
inactive: SW-620 > 100 µM | HL-60 60.1 µM | LOX IMVI > 100 µM | OVCAR-4 > 100 µM | NCI-H460 > 100 µM | SK-MEL-2 > 100 µM | NCI-H226 > 100 µM | SNB-19 > 100 µM | PC-3 > 100 µM | ACHN > 100 µM | SK-OV-3 > 100 µM | UO-31 > 100 µM | EKVX > 100 µM | Malme-3M > 100 µM | HCT-116 > 100 µM | MDA-MB-231 > 100 µM | SN12C > 100 µM | OVCAR-5 > 100 µM | A498 > 100 µM

CC(=O)OCC1OC(N2C(S)=C(C#N)C(c3ccco3)C(C(C)=O)=C2c2ccccc2)C(OC(C)=O)C(OC(C)=O)C1OC(C)=O (stereo unspecified)
inactive: SW-620 89.9 µM | HL-60 > 100 µM | LOX IMVI 32.1 µM | RPMI-8226 95.9 µM | OVCAR-4 13.4 µM | NCI-H460 > 100 µM | SK-MEL-2 > 100 µM | NCI-H226 > 100 µM | SNB-19 39.5 µM | PC-3 24.9 µM | ACHN > 10 µM | UO-31 29.3 µM | Malme-3M 52.5 µM | HCT-116 51.9 µM | MDA-MB-231 > 100 µM | SN12C 29.4 µM | OVCAR-5 62.4 µM | A498 > 100 µM

O=C1CCc2nc3ncccc3cc2C1
inactive: SW-620 54.8 µM | RPMI-8226 64.1 µM | OVCAR-4 > 100 µM | NCI-H460 99.5 µM | SK-MEL-2 > 100 µM | NCI-H226 > 100 µM | SNB-19 > 100 µM | PC-3 > 100 µM | ACHN > 100 µM | SK-OV-3 > 100 µM | UO-31 79.8 µM | EKVX > 100 µM | Malme-3M > 100 µM | HCT-116 65.5 µM | MDA-MB-231 > 100 µM | SN12C > 100 µM | OVCAR-5 > 100 µM | A498 > 100 µM

C#CCCCOc1ncccn1
inactive: SW-620 > 100 µM | HL-60 > 100 µM | LOX IMVI > 100 µM | RPMI-8226 > 100 µM | OVCAR-4 > 100 µM | SK-MEL-2 > 100 µM | NCI-H226 > 100 µM | SNB-19 > 100 µM | PC-3 > 100 µM | ACHN > 100 µM | SK-OV-3 > 100 µM | UO-31 > 100 µM | EKVX > 100 µM | Malme-3M > 100 µM | HCT-116 > 100 µM | MDA-MB-231 > 100 µM | SN12C > 100 µM | OVCAR-5 > 100 µM | A498 > 100 µM

Cc1ccc(C(=O)Nc2ccc(CP(=O)(O)O)cc2CP(=O)(O)O)cc1NC(=O)c1cccc(NC(=O)Nc2cccc(C(=O)Nc3cc(C(=O)Nc4ccc(CP(=O)(O)O)cc4CP(=O)(O)O)ccc3C)c2)c1
inactive: SW-620 41.8 µM | HL-60 > 100 µM | LOX IMVI > 100 µM | RPMI-8226 > 100 µM | OVCAR-4 > 100 µM | NCI-H460 > 100 µM | SK-MEL-2 > 100 µM | NCI-H226 > 100 µM | PC-3 > 100 µM | ACHN > 100 µM | SK-OV-3 > 100 µM | UO-31 > 100 µM | EKVX > 100 µM | Malme-3M > 100 µM | HCT-116 > 100 µM | MDA-MB-231 > 100 µM | SN12C > 100 µM | OVCAR-5 > 100 µM | A498 > 100 µM
